{"source": "paper PMC10239968", "about": "“[^18F]AlF-NOTA-ADH-1: A new PET molecular radiotracer for imaging of N-cadherin-positive tumors” (Frontiers in Oncology, 2023)", "type_in_all_cases": "in vivo, BALB/c nu/nu mice", "key": {"[1]": {"system": "SW480 tumor xenografts", "settings": "SW480 xenograft nude mice, n=5, mean±SD", "description": "(§1) All animal experiments were performed in accordance with and approved by the Institutional Animal Care and Use Committee guidelines of the First Affiliated Hospital of Zhejiang University School of Medicine. BALB/c nu/nu mice (female, 20 ± 3 g, 4- to 6-week-old; Department of Laboratory Animal Science, Zhejiang University) were used in this study. The SW480 and BxPC3 xenografts were generated, and 5×10^6 tumor cells were subcutaneously injected into the flanks of female athymic nude mice. The PDX-bearing mouse models were established as follows. Pancreatic cancer (diagnosed as pancreatic ductal adenocarcinoma) tissues were obtained from the surgery of a patient. Written informed consent was obtained from the patient, and the research protocol was approved by the Clinical Research Ethics Committee of the First Affiliated Hospital of Zhejiang University School of Medicine. The sample was sectioned into about 1mm^3 pieces, and the tumor tissues were subcutaneously implanted into BALB/c nu/nu mice flanks. Mice were allowed free access to sterile water and food and were kept under strict disease-free conditions with controlled temperature (~25°C), humidity (50-70%), and circadian rhythms (12-hour light/dark cycles). All necessary procedures were carried out to minimize discomfort and avoid the waste of animals. The length and width of the tumor were measured every other day. Biodistribution studies and positron emission tomography in mice were performed after the tumor volume reached 150 to 200 mm^3.\n(§2) The BALB/c nude mice were randomized into different tumor models (SW480, BxPC3, and pancreatic PDX), including 5 mice per group. Each nude mouse was injected with 0.74MBq (20μCi) [^18F]AlF-NOTA-ADH-1 through the caudal vein. Blood was collected from the orbit, and the mice were dissected to collect the brain, heart, lung, liver, liver, spleen, stomach, intestine, muscle, bone and others at 30 min, […], 60min, 90min and 120min after injection. In the blocked group, the study was performed with a saturating dose of ADH-1 (20 mg/kg of mouse body weight) intravenously administered 60min before the intravenous injection of [^18F]AlF-NOTA-ADH-1 in the pancreatic PDX model and SW480 xenograft model. The mice in the tumor xenograft model were sacrificed 1h after [^18F]AlF-NOTA-ADH-1 injection. The nude mice were dissected, and tumor tissues and related tissues (blood, brain, heart, lung, liver, spleen, kidney, stomach, intestine, muscle and bone) were weighed, and their radioactivity was measured by γ-counter. The radioactivity results were recorded as % ID/g."}, "[2]": {"experiment": "in vivo", "settings": "female, BALB/c nu/nu, mouse, in vivo, iv, total radioactivity", "description": "as §1, §2"}, "[3]": {"system": "BxPC3 tumor xenografts", "experiment": "in vivo", "settings": "for T/Blood ratio / T/Muscle ratio / Tumor uptake: BxPC3 xenograft nude mice, n=5, mean±SD", "description": "as §1, §2"}, "[4]": {"settings": "blocking (ADH-1 20 mg/kg i.v. 60min before), 60min p.i."}, "[5]": {"settings": "0.74 MBq (20 uCi) per mouse, Kidney uptake"}}, "note": "Like-named read-outs stand apart in the source and are kept apart here."}
{"smiles": "CC(=O)N[C@H]1CSSC[C@@H](C(=O)NCCNC(=O)CN2CCN(CC(=O)O)CCN(CC(=O)O)CC2)NC(=O)[C@H](C(C)C)NC(=O)[C@H](C)NC(=O)[C@H](Cc2c[nH]cn2)NC1=O", "note": "[[^18F]AlF-NOTA-ADH-1]", "values": [{"measurement": "T/Blood ratio", "setting": "[1]; [4]", "value": "3.96±0.33"}, {"measurement": "T/Muscle ratio", "setting": "[1]; [4]", "value": "1.03±0.56"}, {"measurement": "Tumor uptake", "setting": "[1]; [4]", "value": "1.07±0.57", "unit": "%ID/g"}, {"measurement": "T/Blood ratio", "setting": "[1]; non-blocking, 30min p.i.", "value": "5.77±0.13"}, {"measurement": "T/Muscle ratio", "setting": "[1]; non-blocking, 30min p.i.", "value": "1.75±0.47"}, {"measurement": "Tumor uptake", "setting": "[1]; non-blocking, 30min p.i.", "value": "1.73±0.11", "unit": "%ID/g"}, {"measurement": "T/Blood ratio", "setting": "[1]; non-blocking, 60min p.i.", "value": "7.42±1.01"}, {"measurement": "T/Muscle ratio", "setting": "[1]; non-blocking, 60min p.i.", "value": "1.91±0.69"}, {"measurement": "Tumor uptake", "setting": "[1]; non-blocking, 60min p.i.", "value": "2.08±1.64", "unit": "%ID/g"}, {"measurement": "T/Blood ratio", "setting": "[1]; non-blocking, 90min p.i.", "value": "9.6±0.76"}, {"measurement": "T/Muscle ratio", "setting": "[1]; non-blocking, 90min p.i.", "value": "1.23±0.92"}, {"measurement": "Tumor uptake", "setting": "[1]; non-blocking, 90min p.i.", "value": "0.96±0.15", "unit": "%ID/g"}, {"measurement": "T/Blood ratio", "setting": "[1]; non-blocking, 120min p.i.", "value": "6.08±0.35"}, {"measurement": "T/Muscle ratio", "setting": "[1]; non-blocking, 120min p.i.", "value": "0.86±0.23"}, {"measurement": "Tumor uptake", "setting": "[1]; non-blocking, 120min p.i.", "value": "0.73±0.67", "unit": "%ID/g"}, {"measurement": "tissue uptake at 1 h", "setting": "[2]; [5]", "value": "10.2 ± 0.47", "unit": "%ID/g"}, {"measurement": "tissue uptake at 1.5 h", "setting": "[2]; [5]", "value": "9.39 ± 0.75", "unit": "%ID/g"}, {"measurement": "tissue uptake at 2 h", "setting": "[2]; [5]", "value": "6.61 ± 0.87", "unit": "%ID/g"}, {"measurement": "tissue uptake at 0.5 h", "setting": "[2]; 0.74 MBq, Muscle uptake", "value": "1.03 ± 0.4", "unit": "%ID/g"}, {"measurement": "tissue uptake at 0.5 h", "setting": "[2]; 0.74 MBq, Pancreas uptake", "value": "0.23 ± 0.08", "unit": "%ID/g"}, {"measurement": "tissue uptake at 1 h", "setting": "[2]; 0.74 MBq, Pancreas uptake", "value": "0.61 ± 0.09", "unit": "%ID/g"}, {"measurement": "tissue uptake at 1.5 h", "setting": "[2]; 0.74 MBq, Pancreas uptake", "value": "0.49 ± 0.23", "unit": "%ID/g"}, {"measurement": "tissue uptake at 2 h", "setting": "[2]; 0.74 MBq, Pancreas uptake", "value": "0.65 ± 0.11", "unit": "%ID/g"}, {"measurement": "Tumor tissue uptake", "setting": "[3]; BxPC3 tumor model", "value": "no significant uptake"}, {"measurement": "T/Blood ratio", "setting": "[3]; 30min p.i.", "value": "3.18± 0.08"}, {"measurement": "T/Muscle ratio", "setting": "[3]; 30min p.i.", "value": "0.86±0.21"}, {"measurement": "Tumor uptake", "setting": "[3]; 30min p.i.", "value": "0.89±0.12", "unit": "%ID/g"}, {"measurement": "T/Blood ratio", "setting": "[3]; 60min p.i.", "value": "4.22±0.23"}, {"measurement": "T/Muscle ratio", "setting": "[3]; 60min p.i.", "value": "0.96±0.32"}, {"measurement": "Tumor uptake", "setting": "[3]; 60min p.i.", "value": "1.07±0.36", "unit": "%ID/g"}, {"measurement": "T/Blood ratio", "setting": "[3]; 90min p.i.", "value": "5.45±0.10"}, {"measurement": "T/Muscle ratio", "setting": "[3]; 90min p.i.", "value": "0.66±0.19"}, {"measurement": "Tumor uptake", "setting": "[3]; 90min p.i.", "value": "0.60±0.12", "unit": "%ID/g"}, {"measurement": "T/Blood ratio", "setting": "[3]; 120min p.i.", "value": "1.42±0.13"}, {"measurement": "T/Muscle ratio", "setting": "[3]; 120min p.i.", "value": "0.63±0.23"}, {"measurement": "Tumor uptake", "setting": "[3]; 120min p.i.", "value": "0.37±0.07", "unit": "%ID/g"}]}
